Data reported in a melting point compilation (Tetko et al.; mined from patent text by program, amines drawn as free bases though some values may be those of a salt).

Structure (SMILES) | melting point
N#CN1CCC2(CC1)CN(c1ccccc1Cl)c1ccccc12 | 158 to 160 °C
COc1cc(C2NC(=O)C(C)S2)cc(OC)c1OC (centres undefined) | 133 to 134 °C
CCn1ncc(NCC(O)CO)c(Cl)c1=O (centres undefined) | 120 to 124 °C
CC(C)NC(=O)n1nc(N(C)C)n(C)c1=O | 36 to 38 °C
CCOC(=O)C1=Cc2cc(Br)ccc2OCC1 | 86 to 87 °C
CC1(C)NC(=S)NC1=S | 144 °C
N#CN=c1[nH]c2cc(Cl)c(Cl)c([N+](=O)[O-])c2[nH]c1=O | 280 to 285 °C
CN(C)S(=O)(=O)c1ccc2c(c1)S(=O)(=O)N=C1CCCN12 | 251 to 253 °C
CCNC(=C[N+](=O)[O-])SC | 66 to 67.5 °C
CN(C)C=Nc1ncc(C#Cc2ccc(Cl)cc2)c(Cl)n1 | 195 to 197 °C
CCCCCCCCCCCCCCCCOc1ccc(C(=O)O)o1 | 118 to 119 °C
CN(C)c1cc2c(C(F)(F)F)cccc2s1 | 70 to 73 °C
CCCN(CCC)C1CCC2=C(CC(OC)=CC2)C1 (centres undefined) | 47 to 51 °C
CC1=C(C#N)S(=O)(=O)c2cc(F)cc(F)c2N1 | 289 to 290 °C
NC(=O)CN1CCN(C(=O)Cc2ccc(OC(=O)c3ccc([N+](=O)[O-])cc3)cc2)CC1 | 192 to 196 °C
N#CCC(=O)Nc1ccc(S(=O)C(F)(F)F)cc1 (centres undefined) | 164 to 165 °C

Structure (SMILES) | melting point
CCOC(=O)C(C#N)c1ncccc1N (centres undefined) | 118 to 119 °C
C#CCn1c(C(F)(F)F)c(CO)c2ccccc21 | 90 °C
Nc1cccc(-c2ccc(CCN3CCN(C(=O)COc4ccccc4)CC3)cc2)n1 | 127 to 130 °C
C=CCNC(=O)ON=C1CCOc2ccccc21 | 83 to 86 °C
Cc1ccc(S(=O)(=O)N(C)c2ccc([N+](=O)[O-])cc2C)cc1 | 103 to 104 °C
COc1ccc(C(=O)O)c([N+](=O)[O-])c1OC | 200 to 202 °C
O=c1c(C2CCCC2)coc2cc(O)cc(Cl)c12 | 282 to 284 °C
CCCCCCCCCCCCCCC(=O)C(=O)NC(C=CC(=O)OC)CCCC (centres undefined) | 48 to 50 °C
Cc1nc(-c2ccc(I)cc2)no1 | 121 to 122 °C
Cc1ccc2cc(C=O)ccc2c1 | 110 to 111 °C
N#CC(=O)c1ccccc1Br | 64 °C
O=C1CC(OC2CCCCO2)C(CC2CCCCC2)N1 (centres undefined) | 110 to 115 °C
CN1C(=O)CC[C@]2(C)c3ccc(-c4ccc(C(C)(C)C)cc4)cc3CC[C@@H]12 | 141 to 147 °C
COc1cccc2c1CC(C(=O)O)N2C(=O)OC(C)(C)C (centres undefined) | 148 to 150 °C
OCCCC#CC#Cc1ccccc1 | 50.9 to 51.6 °C

Other lines, results leading:

melting point | Structure (SMILES)
101 to 107 °C | CN(c1ccncc1[N+](=O)[O-])n1cccc1C=O
80 to 82 °C | COc1nc(NCCCN2CCOCC2)nc(OC)c1NC(=O)c1ccc(Oc2cncc([Si](C)(C)C)c2)o1
154 to 156 °C | COc1cccc(Sc2ccc3c(c2)CC[C@H]2NC(=O)CC[C@]32C)c1
149 to 150 °C | Cc1nc(-n2cnn(CCOC(=O)NCc3ccc(F)cc3)c2=O)sc1C(=O)NCc1cccnc1
166 to 169 °C | O=C(O)C1CC(c2ccccc2)=NN1C(=O)CP(=O)(O)CCCCc1ccccc1 (single isomer, unassigned; (+))
73 to 75 °C | COc1ccc(NC(=N)c2ccccn2)cc1
134 to 136 °C | COc1ccc(OCc2ccc(OCc3nc(-c4ccccc4)oc3C)cc2)c(CC(=O)O)c1
59 °C | COc1ccc(Cn2c(=O)n(C3CCCCC3)c3cc(Cl)ccc32)cc1OC
120 °C | COC(=O)CCc1cc2nc(Cl)ccc2n1S(=O)(=O)c1cccc2cccnc12
152 to 154 °C | CCCc1nc2c(N)nc3cc(OC)ccc3c2s1
90 to 91 °C | O=C(O)c1c(Br)cc(OCc2ccccc2)cc1OCc1ccccc1
210 to 211 °C | Cc1nc(Cc2ccc(NC(=O)/C=C/c3cnn(C)c3-c3ccc(F)cc3)cc2)sc1C
137 to 138 °C | O=S(=O)(c1ccc(Nc2nccc(Nc3ccc(F)cc3)n2)cc1)N(CCNCC(F)(F)F)C1CCN(Cc2ccccc2)CC1
135 to 137 °C | CCS(=O)(=O)N1CCN(Cc2ccc(COc3cccc4c3CN(C3CCC(=O)NC3=O)C4=O)cc2)CC1 (centres undefined)
102 to 105 °C | Cc1cc(Cn2cnc(Cl)c2CC#N)ccc1OCc1ccccc1
105 to 107 °C | O=C(c1cccnn1)c1ccccc1Cl
114 to 116 °C | CCC(Oc1cccc([N+](=O)[O-])c1)C(=O)NCc1ccccc1 (centres undefined)
130 to 131 °C | COc1cc(COc2nn(-c3ccccc3)cc2/C=C/c2nc(C)cs2)ccc1OCc1nc(-c2ccco2)oc1C
196 to 198 °C | Oc1ccc(-c2c(Cl)c3cc(O)ccc3n2Cc2ccc(OCCN3CCCCCC3)cc2)cc1
75 °C | CC(C)COCCOc1ccc(OCC(O)CNCCNC(=O)N(C)C)cc1 (centres undefined)
182 to 185 °C | COC(=O)c1cc(CO)ccc1S(=O)(=O)NC(=O)Nc1nc(OC)cc(OC)n1
186 to 189 °C | NC(=O)NCc1ccc(Cl)cc1

melting point | Structure (SMILES)
102 °C | CC(=O)c1ccc(Oc2ccc(C(C)=O)cc2)cc1
136 to 138 °C | CCc1cccc(CC)c1-n1cnc(N)nc1=O
144 to 146 °C | CC(=O)Nc1nc2ccc(S(=O)(=O)n3c(COC(C)(C)C(=O)O)cc4cc(C(F)(F)F)ccc43)cc2s1
138 to 140 °C | COc1ccc(OC)c(CCc2ccc3c(c2)C(=O)NCN3)c1
212 to 214 °C | COc1ccc(C=CC(=O)O)cc1-c1cc2c(cc1OCCCCCCCC(=O)O)C(C)(C)CCC2(C)C
194 to 195 °C | CC(=O)c1ccc(S(=O)(=O)Nc2nccs2)cc1
100 °C | Cc1cccc(-c2ccc3ccc(NC(=O)c4cccc(Br)c4)nc3n2)c1
309 to 313 °C | NC(=O)c1nn(-c2ccc(F)cc2)c2c1CCc1ccc(NC(=O)c3cc(N4CCOCC4)ncc3Cl)cc1-2
96 to 97 °C | COc1ccccc1CN1CCC(=O)C(C2c3ccccc3Oc3ccccc32)C1 (centres undefined)
92 to 93 °C | COc1cc(CO)ccc1OCc1nc(N2CCCCC2)sc1C
165 to 167 °C | O=C(CCCCCl)c1c[nH]c2ccccc12
188 to 190 °C | O=C1NCCc2ccc(OCCCCN3CCN(c4cccc5ccccc45)CC3)nc2N1
201 to 202 °C | Cc1ccc(C(=O)Nc2ccc(N3CCCCC3)c(C(F)(F)F)c2)cc1Nc1nccc(-c2cccnc2)n1
76 °C | CCCCCCCC(=O)N[C@@H](Cc1ccc(O)cc1)C(=O)OC
134 °C | Cc1nc2sccn2c(=O)c1CCN1CCC(n2ccc3ccccc32)CC1
210 to 213 °C | CNC(=O)c1ccc(N2CCN(Cc3cc4c(c(OC(F)F)c3)OC(C)C(=O)N4)CC2)cc1 (centres undefined)
186 to 188 °C | CN(C)c1ccc(-c2nnc(N3CCC(O)CC3)nc2-c2ccc(N(C)C)cc2)cc1
190 °C | CCn1nnc(Nc2ccc3nc(NCc4ccccc4OC)ccc3c2)n1
252 to 253 °C | CS(=O)(=O)N1CCN(c2ccc3c(c2)N2CCN=C2C(c2ccccc2)=[N+]3[O-])CC1
196 to 200 °C | Cc1cc(C)c(/C=C2\C(=O)N(CO)c3ccccc32)[nH]1
125 to 130 °C | O=C1C(=O)c2ccc(Cl)cc2C2=C1SCC1(CCN(C(=O)c3cccc(Cl)c3)CC1)O2
